Results reported in patent US8552069B2, “Method for treatment of obesity, dyslipidemia, fatty liver or insulin resistance syndrome comprising camphene as active ingredient” (Industry-Academic Cooperation Foundation, Yonsei University, priority 2009, dated 2013).
Marks after values point to notes of the source that are not given here.

Experiments:
C/EBPα = assay: RT-PCR mRNA expression in epididymal (visceral) fat tissue: C/EBPα; type: in vivo, mouse; details: as compared to the high-fat diet group, FIGS. 5a and 5b
Method: (§1) After adding 1 mL of TRIzol solution per 0.1 g of epididymal fat tissue, centrifugation was performed at 4° C. and 12,000×g for 10 minutes. The supernatant was transferred to a fresh tube and vortexed after adding 200 μL of chloroform. After repeating this procedure twice, the supernatant was transferred to a fresh tube and isopropanol was added to the supernatant at a ratio of 1:1. After shaking strongly for 10 times and keeping at room temperature for 10 minutes, centrifugation was performed at 4° C. and 12,000×g for 10 minutes. After removing the supernatant and adding 1 mL of 70% ethanol to the remaining pellets, centrifugation was performed at 4° C. and 7,500×g for 5 minutes. After removing ethanol, the RNA pellets held in the tube were dried at room temperature for 5 minutes and dissolved using nuclease-free water. The concentration of the extracted RNA was measured at 260 nm and 280 nm using a UV/VIS spectrophotometer (Beckman Coulter, DU730), and the integrity of RNA was analyzed by agarose gel electrophoresis.
(§2) cDNA was synthesized by performing reverse transcription for the RNA sample extracted from the epididymal fat tissue using oligo-dT primer and SuperScript reverse transcriptase (GIBCO BRL, Gaithersburg, Md., USA). […]

IL-6 = assay: RT-PCR mRNA expression in visceral fat tissue: IL-6; type: in vivo, mouse; details: versus HFD group, FIGS. 6a and 6b
Method: as §1, §2

C57BL/6J mice [1] = assay: Obesity-related biochemical indices in blood (serum) of high-fat diet mice; type: in vivo, mouse; details: 10 weeks
Method: (§3) The obesity-inducing diet used in this example was high-fat diet (HFD: 40% fat calorie, 17 g lard+3% corn oil/100 g diet). Camphene-containing diet had the same composition as HFD, except that camphene was included at 0.2%. Normal diet (ND) was prepared with the composition of AIN-76 rodent diet (American Institute of Nutrition, Report of the American Institute of Nutrition ad hoc committee on standards for nutritional studies. J. Nutr. 107: 1340-1348, 1977) (see Table 1). (±)-Camphene was purchased from Sigma-Aldrich. 5-week-old male C57BL/6J mice (Orient, Korea) were accustomed to the laboratory environment for 1 week while feeding solid feed. Then, they were randomly divided into high-fat diet control group and test group and bred for a total of 10 weeks. The diet was given between 10 and 11 a.m. every day together with water. Diet intake was measured every day and body weight was measured once in 3 days. In order to avoid transient body weight increase after feed intake, body weight was measured 2 hours after removing the feed. Feeding efficiency was calculated by dividing accumulated body weight gain during the test period, i.e. from the test diet was given first until the day when the mouse was sacrificed, by total diet intake. After fasting the test animal for at least 12 hours and anesthetizing with diethyl ether, blood, liver and visceral fat (epididymal fat, perirenal fat, mesenteric fat and retroperitoneal fat) were taken and weighed after washing with 0.1 M PBS (pH 7.4). Blood taken from the abdominal aorta was centrifuged at 1000×g for 15 minutes to separate the serum. Total cholesterol, triglyceride and glucose levels in the serum were measured twice for each using a commercially available kit (Bio Clinical system), and insulin level was measured by ELISA using a mouse insulin kit (Shibayaki, Japan). Lipids were extracted from the liver tissue according to Folch et al.'s method. After adding 1 mL of distilled water to 0.25 g of liver tissue, the liver tissue was homogenized using a Polytron homogenizer (IKA-Werke GmbH & Co., Ultra-Turrax, Staufen, Germany). After adding 5 mL of chloroform:methanol solution (2:1, v/v) to the homogenate and mixing well, the mixture was centrifuged at 1000×g for 10 minutes. After adding 2 mL of chloroform:methanol solution (2:1, v/v) again to the supernatant, the same procedure was repeated to completely separate the lipid components of the liver. After adding 3 mL of chloroform:methanol:0.05% CaCl2 (3:48:47, v/v/v) solution to the remaining pellets and mixing well for 1 minute, followed by centrifugation at 1000×g for 10 minutes, the resulting pellets were completely dried with nitrogen gas. The dried lipids were dissolved in 1 mL of methanol and then analyzed. The same kit (Bio Clinical system) as the one used for the serum analysis was used to measure the triglyceride level of the liver tissue.

C57BL/6J mice [2] = assay: Obesity-related biochemical indices in liver tissue of high-fat diet mice; type: in vivo, mouse; details: 10 weeks
Method: as §3

aP2 = assay: RT-PCR mRNA expression in epididymal (visceral) fat tissue: aP2; type: in vivo, mouse; details: as compared to the high-fat diet group, FIGS. 5a and 5b
Method: as §1, §2

PPARγ2 = assay: RT-PCR mRNA expression in epididymal (visceral) fat tissue: PPARγ2; type: in vivo, mouse; details: as compared to the high-fat diet group, FIGS. 5a and 5b
Method: as §1, §2

[3] = system: Gram-positive bacteria, Gram-negative bacteria and fungi; details: cited from earlier work
C57BL/6J mice [4] = assay: Body weight and visceral fat weight of mice fed high-fat diet containing camphene; type: in vivo, mouse; details: 0.2% camphene in high-fat diet, 10 weeks
Method: The obesity-inducing diet used in this example was high-fat diet (HFD: 40% fat calorie, 17 g lard+3% corn oil/100 g diet). Camphene-containing diet had the same composition as HFD, except that camphene was included at 0.2%. Normal diet (ND) was prepared with the composition of AIN-76 rodent diet (American Institute of Nutrition, Report of the American Institute of Nutrition ad hoc committee on standards for nutritional studies. J. Nutr. 107: 1340-1348, 1977) (see Table 1). (±)-Camphene was purchased from Sigma-Aldrich. [table] 5-week-old male C57BL/6J mice (Orient, Korea) were accustomed to the laboratory environment for 1 week while feeding solid feed. Then, they were randomly divided into high-fat diet control group and test group and bred for a total of 10 weeks. The diet was given between 10 and 11 a.m. every day together with water. Diet intake was measured every day and body weight was measured once in 3 days. In order to avoid transient body weight increase after feed intake, body weight was measured 2 hours after removing the feed. Feeding efficiency was calculated by dividing accumulated body weight gain during the test period, i.e. from the test diet was given first until the day when the mouse was sacrificed, by total diet intake. After fasting the test animal for at least 12 hours and anesthetizing with diethyl ether, blood, liver and visceral fat (epididymal fat, perirenal fat, mesenteric fat and retroperitoneal fat) were taken and weighed after washing with 0.1 M PBS (pH 7.4). Blood taken from the abdominal aorta was centrifuged at 1000×g for 15 minutes to separate the serum.

TNFα = assay: RT-PCR mRNA expression in visceral fat tissue: TNFα; type: in vivo, mouse; details: versus HFD group, FIGS. 6a and 6b
Method: as §1, §2

NF-κB = details: mouse macrophage cells (RAW 264.7); cited from earlier work
UCP1 = assay: RT-PCR mRNA expression in visceral fat tissue: UCP1; type: in vivo, mouse; details: versus HFD group, FIG. 7
Method: as §1, §2

3T3-L1 cells = assay: Suppression of differentiation of 3T3-L1 preadipocytes into adipocytes (Oil Red O staining); type: cell-based, mouse; details: camphene 0.1, 1, 10, 50 and 100 μM, 14 days
Method: Mouse 3T3-L1 cells were used to investigate the effect of camphene on differentiation and growth of adipocytes. The preadipocytes, 3T3-L1 cells, were seeded on a 12-well plate and cultured to confluency using Dulbecco's modified Eagle's medium (DMEM) containing 1% penicillin-streptomycin, 1% nonessential amino acid and 10% fatal bovine serum (FBS), in a 5% CO2 incubator at 37° C. The 3T3-L1 cells grown to confluency were cultured for 2 days in a medium containing MDI (0.5 mM isobutylmethylxanthine, 1 μM dexamethasone and 1 μg/mL insulin) to differentiate them into adipocytes. Then, the cells were further cultivated in DMEM containing 1 μg/mL insulin to differentiate them into mature adipocytes. The cells were further cultured for 10 more days while replacing DMEM every other day to obtain fully differentiated adipocytes. From the first day when MDI was added to the 3T3-L1 cells, camphene was treated at concentrations of 0.1, 1, 10, 50 and 100 μM with 2-day intervals. (±)-Camphene purchased from Sigma-Aldrich was used after being dissolved in DMSO. Only DMSO was added to the negative control group. […] In order to measure the level of triglyceride contained in the differentiated 3T3-L1 cells, the stained lipid droplets were dissolved in 1 mL of isobutanol and OD value was measured at 600 nm.

UCP3 = assay: RT-PCR mRNA expression in visceral fat tissue: UCP3; type: in vivo, mouse; details: versus HFD group, FIG. 7
Method: as §1, §2

[5] = blood, camphene-administered group
[6] = liver tissue, camphene-administered group

C=C1C2CCC(C2)C1(C)C (racemic) [camphene]
C/EBPα mRNA expression in visceral fat tissue (C/EBPα): significantly decreased expression
IL-6 gene expression in visceral fat tissue (IL-6): decreased expression of TNFα and IL-6 genes back to the level of the ND group
lower arteriosclerotic index as compared to HFD (C57BL/6J mice [1]; 0.2% camphene in high-fat diet): 59%
lower fasting blood sugar level as compared to HFD (C57BL/6J mice [1]; 0.2% camphene in high-fat diet): 10%
lower insulin resistance (IRI) as compared to HFD (C57BL/6J mice [1]; 0.2% camphene in high-fat diet): 40%
lower serum LDL+VLDL cholesterol level as compared to HFD (C57BL/6J mice [1]; 0.2% camphene in high-fat diet): 79%
lower serum free fatty acid level as compared to HFD (C57BL/6J mice [1]; 0.2% camphene in high-fat diet): 86%
lower serum insulin level as compared to HFD (C57BL/6J mice [1]; 0.2% camphene in high-fat diet): 32%
lower serum total cholesterol level as compared to HFD (C57BL/6J mice [1]; 0.2% camphene in high-fat diet): 60%
lower serum triglyceride level as compared to HFD (C57BL/6J mice [1]; 0.2% camphene in high-fat diet): 69%
IRI (insulin resistance index) (C57BL/6J mice [1]; 10^−3 pmol insulin × mmol glucose × L^−2, camphene-administered group): 1.11 ± 0.21^b
Arteriosclerotic index (C57BL/6J mice [1]; (total cholesterol − HDL cholesterol)/HDL cholesterol, camphene-administered group): 0.42 ± 0.03^b
Free fatty acid (C57BL/6J mice [1]; [5]): 197 ± 6.7^c μEq/L
HDL cholesterol (C57BL/6J mice [1]; [5]): 1.02 ± 0.04^c mmol/L
Insulin (C57BL/6J mice [1]; [5]): 0.85 ± 0.23^b ng/mL
LDL + VLDL cholesterol (C57BL/6J mice [1]; [5]): 0.44 ± 0.05^b mmol/L
Total cholesterol (C57BL/6J mice [1]; [5]): 1.55 ± 0.11^b mmol/L
Triglyceride (C57BL/6J mice [1]; [5]): 0.44 ± 0.05^b mmol/L
Glucose (C57BL/6J mice [1]; blood, fasting, camphene-administered group): 7.6 ± 0.51^ab mmol/L
lower cholesterol level in the liver tissue as compared to HFD (C57BL/6J mice [2]; 0.2% camphene in high-fat diet): 86%
lower free fatty acid level in the liver tissue as compared to HFD (C57BL/6J mice [2]; 0.2% camphene in high-fat diet): 73%
lower liver weight per body weight as compared to HFD (C57BL/6J mice [2]; 0.2% camphene in high-fat diet): 22%
lower triglyceride level in the liver tissue as compared to HFD (C57BL/6J mice [2]; 0.2% camphene in high-fat diet): 58%
Liver weight (C57BL/6J mice [2]; camphene-administered group): 4.3 ± 0.32^b g/100 g body wt
Cholesterol (C57BL/6J mice [2]; [6]): 10.3 ± 2.6^c μmol/g
Free fatty acid (C57BL/6J mice [2]; [6]): 6.5 ± 0.91^b μEq/g
Triglyceride (C57BL/6J mice [2]; [6]): 14.7 ± 2.3^c μmol/g
aP2 mRNA expression in visceral fat tissue (aP2): significantly decreased expression
PPARγ2 mRNA expression in visceral fat tissue (PPARγ2): significantly decreased expression
growth of Gram-positive bacteria, Gram-negative bacteria and fungi [3]: inhibiting growth
lower accumulated body weight gain as compared to HFD control group (C57BL/6J mice [4]): 58%
lower final body weight as compared to HFD control group (C57BL/6J mice [4]): 33%
lower epididymal fat weight per body weight as compared to HFD (C57BL/6J mice [4]; P<0.001): 46%
lower mesenteric fat weight per body weight as compared to HFD (C57BL/6J mice [4]; P<0.001): 61%
lower perirenal fat weight per body weight as compared to HFD (C57BL/6J mice [4]; P<0.001): 76%
lower retroperitoneal fat weight per body weight as compared to HFD (C57BL/6J mice [4]; P<0.001): 48%
lower total visceral fat weight per body weight as compared to HFD (C57BL/6J mice [4]; P<0.001): 52%
TNFα gene expression in visceral fat tissue (TNFα): decreased expression of TNFα and IL-6 genes back to the level of the ND group
activity of the inflammation-inducing factor NF-κB (NF-κB): suppressing the activity
UCP1 gene expression in visceral fat tissue (UCP1): increased expression
differentiation of the preadipocytes (Oil Red O staining) (3T3-L1 cells; FIG. 1a): reduced the differentiation of the preadipocytes in a concentration-dependent manner
OD value (600 nm) of fats stained with Oil Red O (3T3-L1 cells; FIG. 1b): decreased in a concentration-dependent manner
UCP3 gene expression in visceral fat tissue (UCP3): increased expression
